The target in assay [1] is T1, receptor, calf striatum ([^3 H]-spiroperidol) (Bos taurus, UniProt P20288).
T1 construct: calf striatum was used as the receptor; from tissue; host or cells: calf striatum
As to the kind of experiment: Spiroperidol-Binding Test (in vitro).

Assay [2] concerns rats trained to jump up on a vertical isolated pole. Description: Pole Climbing Test (rat): inhibition of conditioned (BCR) and unconditioned (BUR) reaction. The assay is classed as in vivo. The settings on record: ip; for ED50: inhibition of conditioned reaction in 50% of the animals, observation time 6 hours; for ED10: inhibition of unconditioned reaction, ED10, i.p. Here is the method: "Pole Climbing" Test (rat)
For this experimental procedure there was used per dosage a group of 10 rats trained to jump up on a vertical isolated pole in the experimental cage, to escape an electroshock (unconditioned stimulus) produced via the lattice floor immediately after an acoustic signal (conditioned stimulus). The inhibition of the conditioned reaction in the case of 50% of the animals during an observation time of 6 hours is determined by the parameter ED 50 BCR, the inhibition of the unconditioned reaction is determined by the parameter ED 10 BUR.

Assay [3] has as its system apomorphine-induced vomiting (dog). As to the kind of experiment: Antiemetic Activity (dog): apomorphine-induced vomiting. The settings on record: Canis lupus familiaris, po, 1 hour before apomorphine hydrochloride 0.1 or 0.3 mg/kg s.c., 50% of animals protected, read-out: Anti-apomorphine emesis ED50 p.o. The assay is classed as in vivo, dog (Beagle hounds).
[4] abbreviates: 50% detachment of specific binding of [^3 H]-spiroperidol, calf striatum, in vitro, read-out: Spiroperidol-Binding IC50.

Counter-ions that a name gives are not always drawn. Like-named read-outs stand apart in the source and are kept apart here. Bounds are passed on as bounds.

T1 sequence (P20288 whole entry): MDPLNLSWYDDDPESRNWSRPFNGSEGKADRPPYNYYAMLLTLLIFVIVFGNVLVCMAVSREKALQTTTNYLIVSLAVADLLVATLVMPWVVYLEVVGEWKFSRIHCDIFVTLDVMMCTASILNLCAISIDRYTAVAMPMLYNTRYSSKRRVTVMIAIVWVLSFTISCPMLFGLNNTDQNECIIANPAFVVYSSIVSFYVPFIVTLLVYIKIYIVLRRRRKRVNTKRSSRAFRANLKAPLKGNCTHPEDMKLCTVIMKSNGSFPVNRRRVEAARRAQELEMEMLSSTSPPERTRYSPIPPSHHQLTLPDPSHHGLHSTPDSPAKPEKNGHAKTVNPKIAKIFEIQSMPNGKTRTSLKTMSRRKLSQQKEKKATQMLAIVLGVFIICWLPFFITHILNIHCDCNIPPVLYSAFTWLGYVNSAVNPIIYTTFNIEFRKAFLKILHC

The term IC50 denotes the midpoint of a concentration-inhibition curve. For orientation: ED50 means the dose at which the effect has come halfway, by size or by number of responders. With `O=c1[nH]c2cc(I)ccc2n1[C@@H]1CCN2C[C@@H](c3ccccc3F)CC[C@@H]2C1` (relative stereo) [rac-1-[(9aβH)-7β-(o-fluorophenyl)-octahydro-2H-quinolizin-2α-yl]-5-iodo-2-benzimidazolinone], the IC50 in assay [1] stood at 8.6 nM. For the same compound, in assay [2], the ED50 came out at 0.1 mg/kg and the ED10 came to 0.055 mg/kg.

The compound `O=c1[nH]c2cc(Br)ccc2n1[C@@H]1CCN2C[C@@H](c3ccccc3F)CC[C@@H]2C1` (relative stereo) [rac-1-[(9aβH)--7β-(o-Fluorophenyl)-octahydro-2H--quinolizin-2α-yl]-5-bromo-2-benzimidazolinone.HCl] came in with an IC50 in assay [1] of 3.8 nM. In addition, in assay [2], the ED50 was 0.08 mg/kg and the ED10 was 0.1 mg/kg.

In assay [1], `N#Cc1ccc2c(c1)[nH]c(=O)n2[C@@H]1CCN2C[C@@H](c3ccccc3F)CC[C@@H]2C1` (relative stereo) [rac-1-[(9aβH)--7β-(o-Fluorophenyl)-octahydro-2H--quinolizin-2α-yl]-5-cyano-2-benzimidazolinone.HCl] showed an IC50 of 50 nM. Besides, in assay [2], it took a dose of 0.65 mg/kg to reach the 50% effect level (ED50) and the ED10 stood at 1 mg/kg.

Take `COc1cc(N)c(Cl)cc1C(=O)N[C@@H]1CCN2C[C@@H](c3ccccc3Cl)CC[C@@H]2C1` (relative stereo) [rac-4-amino-5-chloro-N-[(9aβH)-7β-(o-chlorophenyl)-octahydro-2H-quinolizin-2α-yl]-o-anisamide]: in assay [1] (setting [4]), the IC50 stood at 30 nM. For the same compound, the ED50 in assay [3] is 2.3 mg/kg. In assay [2], this compound showed an ED50 of 12.5 mg/kg and an ED10 of 12.5 mg/kg.

With `O=C1CCCN1C(=O)N[C@@H]1CCN2C[C@@H](c3ccccc3Cl)CC[C@@H]2C1` (relative stereo) [rac-N-((9aβH)-7β-(o-chlorophenyl)octahydro-2H-quinolizin-2α-yl)-2-oxo-1-pyrrolidinecarboxamide], in assay [2], the 50% effect level (ED50) was put at a dose of 23 mg/kg and the ED10 is above 30 mg/kg.

In the case of `O=C(N[C@@H]1CCN2C[C@@H](c3ccccc3Cl)CC[C@@H]2C1)c1cccs1` (relative stereo) [rac-N-((9aβH)-7β-(o-chlorophenyl)octahydro-2H-quinolizin-2α-yl)-2-thiophenecarboxamide], the IC50 in assay [1] (setting [4]) was found to be 123 nM. In assay [2], this compound returned an ED50 of 18 mg/kg and an ED10 of 25 mg/kg.

`CCS(=O)(=O)c1ccc(OC)c(C(=O)N[C@@H]2CCN3C[C@@H](c4ccccc4Cl)CC[C@@H]3C2)c1` (relative stereo) [rac-N-((9aβH)-7β-(o-chlorophenyl)octahydro-2H-quinolizin-2α-yl)-5-(ethylsulfonyl)-o-anisamide]: the half-inhibitory concentration (IC50) in assay [1] (setting [4]) came to 135 nM. Moreover, the ED50 in assay [3] amounted to 0.38 mg/kg. In assay [2], this compound showed an ED50 of 10 mg/kg and an ED10 of 10 mg/kg.

Take `COc1ccc(S(N)(=O)=O)cc1C(=O)N[C@@H]1CCN2C[C@@H](c3ccccc3Cl)CC[C@@H]2C1` (relative stereo) [rac-N-((9aβH)-7β-(o-chlorophenyl)octahydro-2H-quinolizin-2α-yl)-5-sulfamoyl-o-anisamide]: the ED50 in assay [3] came to 0.8 mg/kg.

Take `O=C(N[C@@H]1CCN2C[C@@H](c3ccccc3Cl)CC[C@@H]2C1)c1ccc(F)cc1` (relative stereo) [rac-N-((9aβH)-7β-(o-chlorophenyl)octahydro-2H-quinolizin-2α-yl)-p-fluorobenzamide]: the IC50 in assay [1] (setting [4]) is 67 nM. In assay [2], this compound registered an ED50 of 12 mg/kg and an ED10 of 5.5 mg/kg.

Regarding `O=C(N[C@@H]1CCN2C[C@@H](c3ccccc3Cl)CC[C@@H]2C1)C1CC1` (relative stereo) [rac-N-[(9aβH)-7β-(o-chlorophenyl)-octahydro-2H-quinolizin-2α-yl]-cyclopropanecarboxamide], in assay [1] (setting [4]), the IC50 came out at 550 nM. In assay [2], this compound returned an ED50 of 6 mg/kg and an ED10 of 5.5 mg/kg.

Regarding `O=C(c1ccc(F)cc1)[C@@H]1CCN2C[C@@H](c3ccccc3Cl)CC[C@@H]2C1` (relative stereo) [rac-[(9aβH)-7β-(o-chlorophenyl)-octahydro-2H-quinolizin-2α-yl]p-fluorophenylketone], the IC50 in assay [1] (setting [4]) came out at 11 nM. In assay [2], the ED50 stood at 3 mg/kg and the ED10 was 3 mg/kg.

For the origin of these results see US4391978A, “Phenyl-quinolizidines” (Hoffmann-La Roche Inc., priority 1980, dated 1983).
